Measured values: patent US8906909B2 (Curis, Inc., priority 2009, dated 2014)

Assays:
[1] = tested on: HDACs (HeLa cell nuclear extracts); assay: HDAC enzymatic activity, Biomol Color de Lys system; type: biochemical
Summary of the method: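 IC50 from sigmoidal dose-response fits of fluorescence (Ex 350–380, Em 440–460 nm). Compounds in DMSO dilution series incubated 1 h at 25 °C with HeLa nuclear extract HDACs and colorimetric substrate, pH 8.0 Tris/Cl buffer with NaCl, KCl, MgCl2, before developer termination.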

| SMILES | melting point | IC50 [1] |
| --- | --- | --- |
| CN(Cc1cc2nc(-c3ccc(N)c(F)c3)nc(N3CCOCC3)c2s1)c1ncc(C(=O)NO)cn1 [Compound 276, 2-(((2-(4-Amino-3-fluorophenyl)-4-morpholinothieno[3,2-d]pyrimidin-6-yl)methyl)(methyl)amino)-N-hydroxypyrimidine-5-carboxamide] | 203 to 206 °C | < 100 nM |
| CN(Cc1cc2nc(-c3ccc(CN)cc3)nc(N3CCOCC3)c2s1)c1ncc(C(=O)NO)cn1 [Compound 135, 2-(((2-(4-(aminomethyl)phenyl)-4-morpholinothieno[3,2-d]pyrimidin-6-yl)methyl)(methyl)amino)-N-hydroxypyrimidine-5-carboxamide] | 184 to 186 °C | < 100 nM |
| CN(Cc1cc2nc(-c3cc(F)c(N)c(F)c3)nc(N3CCOCC3)c2s1)c1ncc(C(=O)NO)cn1 [Compound 282, 2-(((2-(4-Amino-3,5-difluorophenyl)-4-morpholinothieno[3,2-d]pyrimidin-6-yl)methyl)(methyl)amino)-N-hydroxypyrimidine-5-carboxamide] | 190 to 193 °C | < 100 nM |
| COc1ccc(-c2nc(N3CCOCC3)c3sc(NS(=O)(=O)c4cccc(/C=C/C(=O)NO)c4)cc3n2)cn1 [Compound 221, (E)-N-hydroxy-3-(3-(N-(2-(6-methoxypyridin-3-yl)-4-morpholinothieno[3,2-d]pyrimidin-6-yl)sulfamoyl)phenyl)acrylamide] | > 300 °C | < 100 nM |
| C[C@@H](O)c1cccc(-c2nc(N3CCOCC3)c3sc(CN(C)c4ncc(C(=O)NO)cn4)cc3n2)c1 [Compound 297, (R)—N-Hydroxy-2-(((2-(3-(1-hydroxyethyl)phenyl)-4-morpholinothieno[3,2-d]pyrimidin-6-yl)methyl)(methyl)amino)pyrimidine-5-carboxamide] | 169 to 173 °C | < 100 nM |
| Nc1ncc(-c2nc(N3CCOCC3)c3sc(NCCCC(=O)NO)cc3n2)cn1 [Compound 225, 4-(2-(2-aminopyrimidin-5-yl)-4-morpholinothieno[3,2-d]pyrimidin-6-ylamino)-N-hydroxybutanamide] | 220 to 230 °C | 1000 to 10000 nM |
| Nc1ncc(-c2nc(N3CCOCC3)c3sc(NCCCCC(=O)NO)cc3n2)cn1 [Compound 226] | 175 to 180 °C | < 100 nM |
| Nc1ncc(-c2nc(N3CCOCC3)c3sc(NS(=O)(=O)c4ccc(/C=C/C(=O)NO)cc4)cc3n2)cn1 [Compound 217, (E)-3-(4-(N-(2-(2-aminopyrimidin-5-yl)-4-morpholinothieno[3,2-d]pyrimidin-6-yl)sulfamoyl)phenyl)-N-hydroxyacrylamide] | > 300 °C | < 100 nM |
| CN(Cc1cc2nc(-c3ccc(N4CCCC4)cc3)nc(N3CCOCC3)c2s1)c1ncc(C(=O)NO)cn1 [Compound 155, N-hydroxy-2-(methyl((4-morpholino-2-(4-(pyrrolidin-1-yl)phenyl)thieno[3,2-d]pyrimidin-6-yl)methyl)amino)pyrimidine-5-carboxamide] | 187 to 192 °C | < 100 nM |
| CNc1ccc(-c2nc(N3CCOCC3)c3sc(CN(C)c4ncc(C(=O)NO)cn4)cc3n2)cc1 [Compound 151, N-hydroxy-2-(methyl((2-(4-(methylamino)phenyl)-4-morpholinothieno[3,2-d]pyrimidin-6-yl)methyl)amino)pyrimidine-5-carboxamide] | 218 to 220 °C | < 100 nM |
| CN(Cc1cc2nc(-c3cc[nH]c3)nc(N3CCOCC3)c2s1)c1ncc(C(=O)NO)cn1 [Compound 197, N-hydroxy-2-(methyl((4-morpholino-2-(1H-pyrrol-3-yl)thieno[3,2-d]pyrimidin-6-yl)methyl)amino)pyrimidine-5-carboxamide] | 175 to 189 °C | < 100 nM |
| Cc1ncc(-c2nc(N3CCOCC3)c3sc(NCCCCC(=O)NO)cc3n2)cn1 [Compound 229, N-Hydroxy-5-(2-(2-methylpyrimidin-5-yl)-4-morpholinothieno[3,2-d]pyrimidin-6-ylamino)pentanamide] | 248 to 252 °C | < 100 nM |
| CN(Cc1cc2nc(-c3ccc(C(N)=O)cc3)nc(N3CCOCC3)c2s1)c1ncc(C(=O)NO)cn1 [Compound 143, 2-(((2-(4-carbamoylphenyl)-4-morpholinothieno[3,2-d]pyrimidin-6-yl)methyl)(methyl)amino)-N-hydroxypyrimidine-5-carboxamide] | 200 to 202 °C | < 100 nM |
| CS(=O)(=O)N1CCN(Cc2cc3nc(-c4cccc5nn(CCCCC(=O)NO)cc45)nc(N4CCOCC4)c3s2)CC1 [Compound 7, N-hydroxy-5-(4-(6-((4-(methylsulfonyl)piperazin-1-yl)methyl)-4-morpholinothieno[3,2-d]pyrimidin-2-yl)-2H-indazol-2-yl)pentanamide] | 146 to 169 °C | 100 to 1000 nM |
| CN(Cc1cc2nc(-c3cccc(SCCO)c3)nc(N3CCOCC3)c2s1)c1ncc(C(=O)NO)cn1 [Compound 290, N-Hydroxy-2-(((2-(3-(2-hydroxyethylthio)phenyl)-4-morpholinothieno[3,2-d]pyrimidin-6-yl)methyl)(methyl)amino)pyrimidine-5-carboxamide] | 188 to 192 °C | < 100 nM |
| CN(Cc1cc2nc(-c3ccc(N)c(C#N)c3)nc(N3CCOCC3)c2s1)c1ncc(C(=O)NO)cn1 [Compound 280, 2-(((2-(4-Amino-3-cyanophenyl)-4-morpholinothieno[3,2-d]pyrimidin-6-yl)methyl)(methyl)amino)-N-hydroxypyrimidine-5-carboxamide] | 237 to 240 °C | < 100 nM |
| CN(Cc1cc2nc(-c3ccc(C#N)cc3)nc(N3CCOCC3)c2s1)c1ncc(C(=O)NO)cn1 [Compound 146, 2-(((2-(4-cyanophenyl)-4-morpholinothieno[3,2-d]pyrimidin-6-yl)methyl)(methyl)amino)-N-hydroxypyrimidine-5-carboxamide] | 214 to 216 °C | < 100 nM |
| CN(C)c1ccc(-c2nc(N3CCOCC3)c3sc(CN(C)c4ncc(C(=O)NO)cn4)cc3n2)cn1 [Compound 114, 2-(((2-(6-(dimethylamino)pyridin-3-yl)-4-morpholinothieno[3,2-d]pyrimidin-6-yl)methyl)(methyl)amino)-N-hydroxypyrimidine-5-carboxamide] | 190 to 195 °C | < 100 nM |
| CCNc1ccc(-c2nc(N3CCOCC3)c3sc(CN(C)c4ncc(C(=O)NO)cn4)cc3n2)cc1 [Compound 153, 2-(((2-(4-(ethylamino)phenyl)-4-morpholinothieno[3,2-d]pyrimidin-6-yl)methyl)(methyl)amino)-N-hydroxypyrimidine-5-carboxamide] | 185 to 187 °C | < 100 nM |
| CN(Cc1cc2nc(-c3cccc4[nH]ncc34)nc(Nc3ccccc3)c2s1)c1ncc(C(=O)NO)cn1 [Compound 164, 2-(((2-(1H-indazol-4-yl)-4-(phenylamino)thieno[3,2-d]pyrimidin-6-yl)methyl)(methyl)amino)-N-hydroxypyrimidine-5-carboxamide] | 232 to 235 °C | < 100 nM |
| CN(Cc1cc2nc(-c3cccc(N)c3)nc(N3CCOCC3)c2s1)c1ncc(C(=O)NO)cn1 [Compound 134, 2-(((2-(3-aminophenyl)-4-morpholinothieno[3,2-d]pyrimidin-6-yl)methyl)(methyl)amino)-N-hydroxypyrimidine-5-carboxamide] | 179 to 182 °C | < 100 nM |
| CNc1ccc(-c2nc(N3CCOCC3)c3sc(S(=O)(=O)NCC4CCN(c5ncc(C(=O)NO)cn5)CC4)cc3n2)cn1 [Compound 310, N-Hydroxy-2-(4-((2-(6-(methylamino)pyridin-3-yl)-4-morpholinothieno[3,2-d]pyrimidine-6-sulfonamido)methyl)piperidin-1-yl)pyrimidine-5-carboxamide] | 190 to 197 °C | < 100 nM |
| CC(C)c1ccc(-c2nc(N3CCOCC3)c3sc(CN(C)c4ncc(C(=O)NO)cn4)cc3n2)cc1 [Compound 148, N-hydroxy-2-(((2-(4-isopropylphenyl)-4-morpholinothieno[3,2-d]pyrimidin-6-yl)methyl)(methyl)amino)pyrimidine-5-carboxamide] | 155 °C (dec.) | < 100 nM |
| COc1cccc(-c2nc(N3CCOCC3)c3sc(CN(C)c4ncc(C(=O)NO)cn4)cc3n2)c1 [Compound 130, N-hydroxy-2-(((2-(3-methoxyphenyl)-4-morpholinothieno[3,2-d]pyrimidin-6-yl)methyl)(methyl)amino)pyrimidine-5-carboxamide] | 179 to 181 °C | < 100 nM |
| CN(CCCCC(=O)NO)Cc1cc2nc(-c3cccc4[nH]ncc34)nc(N3CCOCC3)c2s1 [Compound 102, 5-(((2-(1H-indazol-4-yl)-4-morpholinothieno[3,2-d]pyrimidin-6-yl)methyl)(methyl)amino)-N-hydroxypentanamide] | 120 to 122 °C | 100 to 1000 nM |
| CC(=O)c1cc(-c2nc(N3CCOCC3)c3sc(CN(C)c4ncc(C(=O)NO)cn4)cc3n2)ccc1N [Compound 281, 2-{[2-(3-Acetyl-4-amino-phenyl)-4-morpholin-4-yl-thieno[3,2-d]pyrimidin-6-ylmethyl]-methyl-amino}-pyrimidine-5-carboxylic acid hydroxyamide] | 156 to 158 °C | < 100 nM |
| Nc1ccc(-c2nc(N3CCOCC3)c3sc(CNc4ncc(C(=O)NO)cn4)cc3n2)cc1 [Compound 211, 2-((2-(4-aminophenyl)-4-morpholinothieno[3,2-d]pyrimidin-6-yl)methylamino)-N-hydroxypyrimidine-5-carboxamide] | 217 to 223 °C | < 100 nM |
